Experimental data published in patent US20250179032A1, “HETEROCYCLIC INHIBITORS OF GLUT9 FOR TREATMENT OF DISEASE” (HORIZON THERAPEUTICS IRELAND DAC, priority 2022, published 2025).

Biological target: T1, H. sapiens SLC2A9 variant 2 (GLUT9B) (Homo sapiens, UniProt Q9NRM0)
T1 sequence (Q9NRM0 1-511 isoform Q9NRM0-2): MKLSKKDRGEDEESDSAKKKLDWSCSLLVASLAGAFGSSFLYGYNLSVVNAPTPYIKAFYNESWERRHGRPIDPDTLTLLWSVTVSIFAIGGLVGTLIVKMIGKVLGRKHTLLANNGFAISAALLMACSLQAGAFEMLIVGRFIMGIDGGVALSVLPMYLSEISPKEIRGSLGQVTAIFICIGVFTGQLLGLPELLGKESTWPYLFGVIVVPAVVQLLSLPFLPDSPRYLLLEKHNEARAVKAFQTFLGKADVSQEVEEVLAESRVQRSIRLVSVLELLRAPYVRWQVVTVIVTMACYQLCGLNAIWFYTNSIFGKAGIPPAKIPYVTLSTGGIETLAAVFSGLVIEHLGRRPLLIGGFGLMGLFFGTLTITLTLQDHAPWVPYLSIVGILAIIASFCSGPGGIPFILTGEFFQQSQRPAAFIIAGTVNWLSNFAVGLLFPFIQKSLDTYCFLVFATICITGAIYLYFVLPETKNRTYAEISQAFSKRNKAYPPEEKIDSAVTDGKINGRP
Experiment: GLUT9 functional assay: uric acid uptake in HEK293T cells, allantoin formation by MS/MS as proxy of GLUT9B inhibition
Assay type: cell-based
Conditions: 15 minute assay; HEK293T cells stably expressing GLUT9B and transiently A. oryzae uricase; uric acid 0.3 mM, 37° C.; read-out: 15 min IC50
Experimental: Uric acid stocks (9 mM, Millipore-Sigma, U0881) were generated in 125 mM choline chloride (Millipore-Sigma, C7017) and the concentration was determined at 293 nm using a molar extinction coefficient of 9600 M- ^1 cm- ^1) after collecting the absorbance spectra from 220-350 nm. Allantoin stocks (12 mM Toronto Research Chemicals, A540500) were generated in LCMS grade water (Thermo Scientific, 51140). The concentration of allantoin was determined by qNMR (Michigan State University). HEK293T cells were purchased from ATCC (HEK 293T/17 SF). Hanks buffered saline salts (HBSS) was purchased from Millipore-Sigma (H6648-1L).
SLC2A9 variant 2 was assayed in sodium gluconate buffer was composed of 125 mM sodium gluconate (TCI Chemicals, G0041-500G), 4.8 mM potassium gluconate (TCI Chemicals, G0040-500G), 1.2 mM calcium gluconate (TCI Chemicals, G0037-500G), 1.2 mM potassium phosphate (pH 7.4, Millipore-Sigma, 17835), 1.2 mM MgSO4, Millipore-Sigma, M2773-500G), 25 mM HEPES pH 7.3, (Millipore-Sigma, 54457). The final pH of the buffer was 7.4. Urate 1 was assayed in the same buffer save the pH was made to be 5.5 using 25 mM MES (pH 5.5) buffer vs 25 mM HEPES (pH 7.3) buffer.
Human untagged clone for (untagged)-human solute carrier family 2 member 9 (SLC2A9), transcript variant (SLC2A9/NM_001001290, FIG. 1 and FIG. 2; SEQ ID NOS: 3 and 4) was purchased from Origene (Cat #SC319239). SLC2A9 variant 2 (GLUT9B) gene was amplified by PCR using the following primer to allow for the introduction of EcoR1 and Not1 sites using the primers below.
HEK293T clonal stable cell lines containing the SLC2A9 variant 2 construct in the bicistronic pIRESpuro vector were generated using Viafect™ (Promega E4981) as per the manufactures instructions and puromycin selection (5 μg×mL^−1).
Uric acid uptake was measured in HEK293T cells stably expressing H. sapiens SLC2A9 variant 2 (GLUT9B) and transiently expressing A. oryzae uricase. Thus, decreased allantoin formation was used as a proxy of GLUT9B inhibition. Briefly, clonal cells were plated (53,000 cells/cm^2) in DMEM with 10% FBS. Twenty-four hours later, A. oryzae uricase was transfected, and assay conducted 3 days later across a 12-point curve in buffer (in mM: 125 sodium gluconate, 4.8 potassium gluconate, 1.2 calcium gluconate, 1.2 potassium phosphate, 1.2 magnesium sulfate4, 25 HEPES; pH 7.4) with uric acid at the GLUT9B Km (0.3 mM) for 15 min or for 60 min, at 37° C. Following wash (Hanks, 37° C.), plates were sealed, incubated (5 min, RT) and cells freeze-thawed prior to lysing in water and shaking (30 min RT). Lysates were filtered through PVDF and subjected to MSMS using a 10 mM ammonium acetate-based mobile phase on a porous graphitic carbon column. Allantoin was detected in positive ion mode. Desired analyte concentrations were quantitated by integrating the area under the curve followed by a log-logistic regression model and data compared to a standard curve prepared in a matching HEK293T biological matrix.
Mass spectrometry measurement of allantoin was completed using an Agilent RapidFire 300 coupled to a Sciex API 4000 mass spectrometer. The stationary phase was an Agilent cartridge D (hypercarb). Mobile phase A was 10 mM ammonium acetate. Mobile phase B was 5 mM ammonium acetate, 25% acetonitrile, 25% acetone. Allantoin was detected in positive ion mode with the following compound ID settings: Q1 159, Q3 115.8, DP 57, CE 12.5 Dwell 100 ms. The source settings were CAD 10, CUR 20, GS1 50, GS250 IS/NC: 5000, TEM 650, EP 10, CXP 10 where Q1 and Q3 resolution were set to low.
Data was quantitated using Area under the curve integration was performed with the RapidFire™ Integrator (Agilent Technologies) for the desired analytes. Quantitation was completed using in a using a log-logistic regression model using allantoin in matching HEK293T biological matrix.

Structure (SMILES)	IC50 [nM]
CCCCc1cnc(-c2ccc(OC)cc2)c(N2CCN(CC(=O)O)CC2)n1 [Compound 1, 2-(4-(6-Butyl-3-(4-Methoxyphenyl)Pyrazin-2-yl)Piperazin-1-yl)Acetic Acid]	> 2000
CCCCc1cnc(-c2ccc(F)c(OC)c2)c(N2CCC(C(=O)O)CC2)n1 [Compound 2, 1-(6-Butyl-3-(4-Fluoro-3-Methoxyphenyl)Pyrazin-2-yl)Piperidine-4-carboxylic acid]	> 2000
CCCCc1cnc(-c2ccc(OC)cc2)c(N2CCC(C(=O)O)CC2)n1 [Compound 3, 1-(6-Butyl-3-(4-Methoxyphenyl)Pyrazin-2-yl)Piperidine-4-Carboxylic Acid]	< 500
CCCCc1cnc(-c2ccc(OC)cc2)c(N2CC3C(C2)C3C(=O)O)n1 (centres unmarked) [Compound 4, 3-(6-Butyl-3-(4-Methoxyphenyl)Pyrazin-2-yl)-3-Azabicyclo[3.1.0]Hexane-6-carboxylic acid]	< 500
CCCCc1cnc(-c2ccc3[nH]ccc3c2)c(N2CCC(C(=O)O)CC2)n1 [Compound 5, 1-(6-Butyl-3-(1H-Indol-5-yl)Pyrazin-2-yl)Piperidine-4-Carboxylic Acid]	> 2000
CCCCc1cnc(-c2ccc(OCCN(C)C)cc2)c(N2CCC(C(=O)O)CC2)n1 [Compound 6, 1-(6-Butyl-3-(4-(2-(Dimethylamino)Ethoxy)Phenyl)Pyrazin-2-yl)piperidine-4-carboxylic acid]	> 2000
CCCCc1cnc(-c2ccc(S(C)(=O)=O)cc2)c(N2CCC(C(=O)O)CC2)n1 [Compound 7, 1-(6-Butyl-3-(4-(Methylsulfonyl)Phenyl)Pyrazin-2-yl)Piperidine-4-carboxylic acid]	500 to 2000
CCCCc1cnc(-c2ccc(OC)cc2)c(N2CCC(S(C)(=O)=O)CC2)n1 [Compound 8, 5-Butyl-2-(4-Methoxyphenyl)-3-(4-(Methylsulfonyl)Piperidin-1-yl)pyrazine]	> 2000
CCCCc1cnc(-c2cc(F)c3occc3c2)c(N2CCC(C(=O)O)CC2)n1 [Compound 9, 1-(6-Butyl-3-(7-Fluorobenzofuran-5-yl)Pyrazin-2-yl)Piperidine-4-carboxylic acid]	< 500
CCCCc1cnc(-c2ccc(OC)cc2)c(N2CCC(F)(C(=O)O)CC2)n1 [Compound 10, 1-(6-Butyl-3-(4-Methoxyphenyl)Pyrazin-2-yl)-4-Fluoropiperidine-4-carboxylic acid]	< 500
CCCCc1cnc(-c2ccc(OC)cc2)c(N2CCC(C(=O)NS(C)(=O)=O)CC2)n1 [Compound 11, 1-(6-Butyl-3-(4-Methoxyphenyl)Pyrazin-2-yl)-N-(Methylsulfonyl)Piperidine-4-carboxamide]	< 500
CCCCc1cnc(-c2ccc(OC)cc2)c(N2CCC(C(=O)O)C2)n1 (centres unmarked) [Compound 12, 1-(6-Butyl-3-(4-Methoxyphenyl)Pyrazin-2-yl)Pyrrolidine-3-Carboxylic acid]	> 2000
CCCCc1cnc(-c2ccc(OCCOC)cc2)c(N2CCC(C(=O)O)CC2)n1 [Compound 13, 1-(6-Butyl-3-(4-(2-Methoxyethoxy)Phenyl)Pyrazin-2-yl)Piperidine-4-carboxylic acid]	< 500
CCCCc1cnc(-c2ccc(OC)cc2)c(N2CCC(C)(C(=O)O)CC2)n1 [Compound 14, 1-(6-Butyl-3-(4-Methoxyphenyl)Pyrazin-2-yl)-4-Methylpiperidine-4-carboxylic acid]	< 500
CCCCc1cnc(-c2ccc(OC)cc2)c(N2CCC(CC(=O)O)CC2)n1 [Compound 15, 2-(1-(6-Butyl-3-(4-Methoxyphenyl)Pyrazin-2-yl)Piperidin-4-yl)Acetic acid]	< 500
CCCCc1cnc(-c2ccc(OC)cc2)c(N2CCC(c3nn[nH]n3)CC2)n1 [Compound 16, 3-(4-(2H-Tetrazol-5-yl)Piperidin-1-yl)-5-Butyl-2-(4-methoxyphenyl)pyrazine]	< 500
CCCCc1cnc(-c2ccc3cc[nH]c3c2)c(N2CCC(C(=O)O)CC2)n1 [Compound 17, 1-(6-Butyl-3-(1H-Indol-6-yl)Pyrazin-2-yl)Piperidine-4-Carboxylic Acid]	500 to 2000
CCCCc1cnc(-c2ccc(OC)cc2)c(-c2ccc(C(=O)O)nc2)c1 [Compound 18, 5′-butyl-2′-(4-methoxyphenyl)-[3,3′-bipyridine]-6-carboxylic acid]	> 2000
CCCCc1cnc(-c2ccc(OC)cc2)c(-c2csc(C(=O)O)c2)c1 [Compound 19, 4-(5-butyl-2-(4-methoxyphenyl)pyridin-3-yl)thiophene-2-carboxylic acid]	500 to 2000
CCCCc1cnc(-c2ccc(OC)cc2)c(-c2csc(C(=O)O)n2)c1 [Compound 20, 4-(5-butyl-2-(4-methoxyphenyl)pyridin-3-yl)thiazole-2-carboxylic acid]	> 2000
CCCCc1cnc(-c2ccc(OC)cc2)c(-c2c[nH]c(C(=O)O)c2)c1 [Compound 21, 4-(5-butyl-2-(4-methoxyphenyl)pyridin-3-yl)-1H-pyrrole-2-carboxylic acid]	> 2000
CCCCc1cnc(-c2ccc(OC)cc2)c(-c2coc(C(=O)O)c2)c1 [Compound 22, 4-(5-butyl-2-(4-methoxyphenyl)pyridin-3-yl)furan-2-carboxylic acid]	> 2000
CCCCc1cnc(-c2ccc(OC)cc2)c(-c2cnc(C(=O)O)nc2)c1 [Compound 23, 5-(5-butyl-2-(4-methoxyphenyl)pyridin-3-yl)pyrimidine-2-carboxylic acid]	> 2000

Same assay, conditions: 60 minute assay; HEK293T cells stably expressing GLUT9B and transiently A. oryzae uricase; uric acid 0.3 mM, 37° C.; read-out: 60 min IC50

Structure (SMILES)	IC50 [nM]
COCCCc1cnc(-c2ccc3occc3c2)c(N2CCC(C(=O)O)CC2C)n1 (racemic) [Compound 180, 1-(3-(benzofuran-5-yl)-6-(3-Methoxypropyl)Pyrazin-2-yl)-2-methylpiperidine-4-carboxylic acid]	< 500
COCCCc1cnc(-c2cc(F)c3occc3c2)c(N2CC[C@@H](C(=O)O)C[C@@H]2C)n1 (single isomer, unassigned) [Compound 183]	< 500
COCCCc1cnc(-c2cc(F)c3occc3c2)c(N2CC[C@H](C(=O)O)C[C@@H]2C)n1 (single isomer, unassigned) [Compound 229]	< 500
COCCCc1cnc(-c2ccc3occc3c2)c(N2CCC[C@H](C(=O)O)C2)n1 (single isomer, unassigned) [Compound 235]	> 2000
COCCCc1cnc(-c2ccc3occc3c2)c(N2CCC[C@@H](C(=O)O)C2)n1 (single isomer, unassigned) [Compound 236]	500 to 2000
CCCCc1cnc(-c2ccc(OC)cc2)c(N2CCC(C(=O)O)CC2)n1 [Compound 3, 1-(6-Butyl-3-(4-Methoxyphenyl)Pyrazin-2-yl)Piperidine-4-Carboxylic Acid]	< 500
